Earlier results, collected in patent US20040018954A1, “Composition of menthol and menthyl lactate, its preparation method and its applications as a cooling agent” (priority 2002, published 2004).

Conditions: manufacturer's product literature

For `CC1CCC(C(C)C)C(OC(=O)C(C)O)C1` (centres unmarked) [Frescolat ML, menthyl lactate], which solubility is on record?
Its solubility is “oil soluble”.

What about the “stable in the pH range” value of the same compound?
Its value is 4-8.
